Assay results: patent US8399429B2, “Uracyl cyclopropyl nucleotides” (Janssen Products, LP, priority 2008, dated 2013)

Assays:
[1] = system: wild type human immunodeficiency virus (HIV) strain IIIB; experiment: HIV assay in MT4 LTR-EGFP cells; format: cell-based, HIV-1; conditions: three days after infection
Description: (§1) Compounds of the invention were tested for their potency against wild type human immunodeficiency virus (HIV). Antiviral activity was evaluated using a cellular assay performed according to the following procedure. The human T-cell line MT4 was engineered with Green Fluorescent Protein (GFP) and a HIV-specific promoter, HIV-1 long terminal repeat (LTR). This cell line, designated MT4 LTR-EGFP, can be used for the in vitro evaluation of anti-HIV activity of investigational compounds. In HIV-1 infected cells, the Tat protein is produced, which upregulates the LTR promotor and eventually leads to stimulation of the GFP reporter production, allowing to measure ongoing HIV-infection fluorometrically. Effective concentration values such as 50% effective concentration (EC50) can be determined and are usually expressed in μM. An EC50 value is defined as the concentration of test compound that reduces the fluorescence of HIV-infected cells by 50%. Monitoring of HIV-1 infection was done using a scanning microscope. Image analysis allows very sensitive detection of viral infection. Measurements were done before cell necrosis, which usually takes place about five days after infection, in particular measurements were performed three days after infection. The column IIIB in the table list the EC50 values against the wild type strain IIIB.

MT-4 cells = experiment: Cellular toxicity in the HIV cell-line (MT-4); format: cell-based, human
Description: as §1
(§2) Also the HIV activity is given (EC50 HIV (μM)) and the cellular toxicity in the HIV cell-line (CC50 (μM) (MT-4)).

[2] = system: HCV replicon (Huh-7 luc/neo, NS3-NS5B of HCV type 1b); experiment: HCV replicon assay (Huh-Luc, luciferase readout); format: cell-based; conditions: Huh-Luc cells, HCV type 1b replicon, three days incubation, luciferase activity
Description: The compounds of formula I were examined for activity in the inhibition of HCV RNA replication in a cellular assay aimed at identifying compounds that inhibit a HCV functional cellular replicating cell line, also known as HCV replicons. The cellular assay was based on a bicistronic expression construct, as described by Lohmann et al. (1999), Science vol. 285 pp. 110-113 with modifications described by Krieger et al. (2001), Journal of Virology 75: 4614-4624, in a multi-target screening strategy.
The assay utilized the stably transfected cell line Huh-7 luc/neo (hereafter referred to as Huh-Luc). This cell line harbors an RNA encoding a bicistronic expression construct comprising the wild type NS3-NS5B regions of HCV type 1b translated from an Internal Ribosome Entry Site (IRES) from encephalomyocarditis virus (EMCV), preceded by a reporter portion (FfL-luciferase), and a selectable marker portion (neoR, neomycine phosphotransferase). The construct is bordered by 5′ and 3′ NTRs (non-translated regions) from HCV type 1b. Continued culture of the replicon cells in the presence of G418 (neo^R) is dependent on the replication of the HCV RNA. The stably transfected replicon cells that express HCV RNA, which replicates autonomously and to high levels, encoding inter alia luciferase, were used for screening the antiviral compounds.
The replicon cells were plated in 384 well plates in the presence of the test and control compounds which were added in various concentrations. Following an incubation of three days, HCV replication was measured by assaying luciferase activity (using standard luciferase assay substrates and reagents and a Perkin Elmer ViewLux™ ultraHTS microplate imager). Replicon cells in the control cultures have high luciferase expression in the absence of any inhibitor. The inhibitory activity of the compound on luciferase activity was monitored on the Huh-Luc cells, enabling a dose-response curve for each test compound. EC50 values were then calculated, which value represents the amount of the compound required to decrease the level of detected luciferase activity by 50%, or more specifically, the ability of the genetically linked HCV replicon RNA to replicate.

Huh7-CMV-Luc cells = experiment: Cellular toxicity in Huh7-CMV-Luc replicon assay; format: cell-based; conditions: three days incubation, Luc activity, read-out: CC50 (μM) (Huh-7)
Description: (§3) Cellular toxicity was determined in the Huh7-CMV-Luc replicon assay. Replicon cells (2500 cells/well), stably transformed with a luciferase reporter gene under control of the cytomegalovirus (CMV) constitutive promotor, were cultured in the presence or absence of test compound concentrations. After three days of incubation at 37° C. in a humidified 5% CO2 atmosphere, cell proliferation was quantified by measuring the Luc activity, and expressed as CC50 values (cytotoxicity, 50% inhibitory concentration of cell growth). Tests were performed in 384-well plates.

[3] = Cellular toxicity in the HIV cell-line (MT-4); format: cell-based, human; conditions: human
Description: as §1, §2

[4] = Cellular toxicity in Huh7-CMV-Luc replicon assay; format: cell-based; conditions: human, Huh7-CMV-Luc cells, three days incubation, Luc activity; read-out: CC50 (μM) (Huh-7)
Description: as §3

[5] = Human immunodeficiency virus 1, IIIB, 72 h

| Compound | EC50 [1] [µM] | CC50 (MT-4 cells) [µM] | EC50 [2] [µM] | CC50 (Huh7-CMV-Luc cells) [µM] | EC50 [1, 5] [µM] | CC50 [3] [µM] | EC50 ([2]; Hepatitis C virus, Huh-7, 72 h) [µM] | CC50 at 3 days [4] [µM] |
| --- | --- | --- | --- | --- | --- | --- | --- | --- |
| C[C@H](NP(=O)(OC[C@H]1O[C@@H](n2ccc(=O)[nH]c2=O)C2(CC2)[C@@H]1O)Oc1ccc(Cl)cc1)C(=O)OCc1ccccc1 (single isomer, unassigned) [Compound 7b] | > 98 | > 90 | 3.4 | > 98 | – | – | – | – |
| CCOC(=O)C1(NP(=O)(OC[C@H]2O[C@@H](n3ccc(=O)[nH]c3=O)C3(CC3)[C@@H]2O)Oc2ccc(Cl)cc2)CC1 (some centres unmarked) [Compound 33] | – | – | – | – | > 98 | > 98 | > 98 | > 98 |
| CC[C@H](NP(=O)(OC[C@H]1O[C@@H](n2ccc(=O)[nH]c2=O)C2(CC2)[C@@H]1O)Oc1ccccc1)C(=O)OC(C)C (some centres unmarked) [Compound 31] | – | – | – | – | > 95 | > 98 | > 98 | > 98 |
| CCCCOC(=O)[C@H](C)NP(=O)(OC[C@H]1O[C@@H](n2ccc(=O)[nH]c2=O)C2(CC2)[C@@H]1O)Oc1cccc2ccccc12 (some centres unmarked) [Compound 15] | – | – | – | – | > 60 | > 60 | 3.6 | > 98 |
| C[C@H](NP(=O)(OC[C@H]1O[C@@H](n2ccc(=O)[nH]c2=O)C2(CC2)[C@@H]1O)Oc1ccccc1)C(=O)OC1CCCC1 (some centres unmarked) [Compound 14] | – | – | – | – | > 98 | > 98 | 3.3 | > 98 |
| CC[C@H](NP(=O)(OC[C@H]1O[C@@H](n2ccc(=O)[nH]c2=O)C2(CC2)[C@@H]1O)Oc1ccccc1)C(=O)OCc1ccccc1 (some centres unmarked) [Compound 21] | – | – | – | – | > 98 | > 80 | 7.8 | > 98 |
| C[C@H](NP(=O)(OC[C@H]1O[C@@H](n2ccc(=O)[nH]c2=O)C2(CC2)[C@@H]1O)Oc1ccc2[nH]ccc2c1)C(=O)OCc1ccccc1 (some centres unmarked) [Compound 20] | – | – | – | – | > 98 | > 98 | 7.6 | > 32 |
| CC(C)(NP(=O)(OC[C@H]1O[C@@H](n2ccc(=O)[nH]c2=O)C2(CC2)[C@@H]1O)Oc1ccccc1)C(=O)OCc1ccccc1 (some centres unmarked) [Compound 4] | – | – | – | – | > 98 | > 98 | 23.9 | > 98 |
